Source: patent publication US10391095B2, “DNA-PK inhibitors” (Vertex Pharmaceuticals Incorporated, priority 2012, dated 2019)

System: DNA-PK null SCID mouse cell line
Assay: Cell viability following irradiation (CellTiter-Glo)
Type: cell-based
Conditions: single agent or in combination with radiation
Description: (§1) To evaluate the radiosensitizing effects of compounds of the invention in combination with ionizing radiation (IR), a broad panel of cell lines across multiple tumor types and genetic backgrounds were tested. Cells were incubated with DMSO or compound 578 for 30 minutes and then exposed to various doses of radiation (0, 0.5, 1, 2, 4, 6, 8, and 16 Gy). Cell viability was assessed at 6 days using CellTiter-Glo® (Promega, Inc).

Row | SMILES | effect on cell viability
1 | CNC(=O)c1ccnc2c([C@H](C)CNc3cc(-c4cnc(C)nc4)ncn3)cccc12 [Compound 578, (S)—N-methyl-8-(1-((2′-methyl-[4,5′-bipyrimidin]-6-yl)amino)propan-2-yl)quinoline-4-carboxamide] | minimal effect on cell viability

System: H2009
Assay: as above
Type: cell-based
Conditions: compound 2.1 μM + IR, 6 days, DMSO 7.6 Gy
Description: as §1

Row | EC50 IR [Gy] | SMILES
2 | 2.5 | CNC(=O)c1ccnc2c([C@H](C)CNc3cc(-c4cnc(C)nc4)ncn3)cccc12 [Compound 578, (S)—N-methyl-8-(1-((2′-methyl-[4,5′-bipyrimidin]-6-yl)amino)propan-2-yl)quinoline-4-carboxamide]

Target: DNA-PK (Homo sapiens, UniProt P78527)
Assay: DNA-PK inhibition assay (radiometric, 33P-ATP)
Type: biochemical
Conditions: 100 μM ATP, competitive tight-binding fit
Summary of the method: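 33P transfer from 100 µM ATP to a DNA-PK peptide (0.8 mg/mL) is measured after 45 min, using about 6 nM enzyme activated by 10 µg/mL sheared dsDNA (HEPES pH 7.5, MgCl2, DTT). Filter-bound counts fitted to a competitive tight-binding inhibition model give Ki.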

Row | SMILES | Ki [nM]
3 | COC(=O)c1ccc(C(C)CNc2cc(-c3ccc(N4CCN(C(C)=O)CC4)nc3)ncn2)c(OC)c1 (stereo not drawn) [Compound 116] | < 30
4 | CNC(=O)c1ccc(C(C)CNc2cc(-c3ccc4c(c3)c(C)nn4CCO)ncn2)c(OC)c1 (stereo not drawn) [Compound 272] | < 30
5 | CNC(=O)c1ccnc2c([C@H](C)CNc3cc(-c4ccc(NCCN5CCCC5=O)nc4)ncn3)cccc12 [Compound 703] | < 30
6 | CNC(=O)c1ccnc2c([C@H](C)CNc3cc(-c4ccc(N5CCN(CC(F)F)CC5)nc4)ncn3)cccc12 [Compound 756] | < 30
7 | COc1ccsc1C(C)CNc1cc(-c2cnc3c(cnn3CC3CC3)c2)ncn1 (stereo not drawn) [Compound 232] | < 30
8 | CNC(=O)c1ccnc2c([C@H](C)CNc3cc(-c4ccc(N5CCN(C(C)C)CC5)nc4)ncn3)cccc12 [Compound 722] | < 30
9 | CNC(=O)c1ccc([C@H](C)CNc2cc(-c3cnc4c(cnn4C4CCN(C)CC4)c3)ncn2)c(OC)c1 [Compound 286] | < 30
10 | CCN(C)c1ccc(-c2cc(NC[C@@H](C)c3ccc(C(=O)NC)cc3OC)ncn2)cn1 [Compound 362] | < 30
11 | CNC(=O)c1ccnc2c([C@H](C)CNc3cc(-c4cnc(C#N)c(OC)c4)ncn3)ccc(F)c12 [Compound 923] | < 30
12 | CNC(=O)c1ccc([C@H](C)CNc2cc(-c3ccc(NCCCOC)nc3)ncn2)c(OC)c1 [Compound 375] | < 30
13 | CNC(=O)c1ccnc2c([C@H](C)CNc3cc(-c4cc(C)nc(OC)c4)ncn3)cccc12 [Compound 863] | < 30
14 | C=C(CNc1cc(-c2ccc(C)nc2)ncn1)c1cnc(N)nc1OC [Compound 453] | < 30
15 | CNC(=O)c1ccnc2c([C@H](C)CNc3cc(-c4cnc(C(F)(F)F)nc4)ncn3)cccc12 [Compound 957] | < 30
16 | CNC(=O)c1ccc(C(C)CNc2cc(-c3cnc4c(cnn4CCC#N)c3)ncn2)c(OC)c1 (stereo not drawn) [Compound 442] | < 30
17 | CNC(=O)c1ccc(C(C)CNc2cc(-c3cnc4c(cnn4CCO)c3)ncn2)c(OC)c1 (stereo not drawn) [Compound 153] | < 30
18 | COc1ccccc1[C@H](C)CNc1cc(-c2ccc(NC(C)CO)nc2)ncn1 (single isomer, unassigned) [Compound 126] | < 30
19 | CNC(=O)c1ccnc2c([C@H](C)CNc3cc(-c4cnc(OC)c(OC)c4)ncn3)cccc12 [Compound 592] | < 30
20 | CNC(=O)c1ccc([C@H](C)CNc2cc(-c3ccc(N(C)CCOC)nc3)ncn2)c(OC)c1 [Compound 370] | < 30
21 | COc1ccccc1CCNc1cc(-c2ccc(N3CCN(C(C)=O)CC3)nc2)ncn1 [Compound 16] | < 30
22 | CCNC(=O)Cn1ncc2cc(-c3cc(NCC(C)c4ccc(C(=O)NC)cc4OC)ncn3)cnc21 (stereo not drawn) [Compound 238] | < 30
23 | CN1CCN(c2ccc(-c3cc(NCCc4ccccc4OC4CC4)ncn3)cn2)CC1=O [Compound 142] | < 30
24 | CNC(=O)c1ccnc2c([C@H](C)CNc3cc(-c4cc(F)c(OC)c(F)c4)ncn3)cccc12 [Compound 824] | < 30
25 | COc1cc(C(=O)NCC(F)F)ccc1[C@H](C)CNc1cc(-c2ccc(C)nc2)ncn1 [Compound 405] | < 30
26 | Cc1ccc(-c2cc(NCC(C)c3ccccc3OC3CCCCC3)ncn2)cn1 (stereo not drawn) [Compound 183] | < 30

More lines, now with the values ahead:

Row | Ki [nM] | SMILES
27 | < 30 | Cc1ccc(-c2cc(NCC(C)c3ccccc3OC3COC3)ncn2)cn1 (stereo not drawn) [Compound 101]
28 | < 30 | C[C@H](CNc1cc(-c2ccc3ncccc3c2)ncn1)c1ccnc2c1OCCO2 [Compound 464]
29 | < 30 | CNC(=O)c1ccnc2c([C@H](C)CNc3cc(-c4ccc(N5CC(CO)C5)nc4)ncn3)cccc12 [Compound 736]
30 | < 30 | CNC(=O)c1ccnc2c([C@H](C)CNc3cc(-c4ccc(O)cc4)ncn3)cccc12 [Compound 685]
31 | < 30 | Cc1ccc(-c2cc(NC[C@@H](C)c3cc(C)nc4c3OCC4)ncn2)cn1 [Compound 502]
32 | < 30 | Cc1ccc(-c2cc(NC[C@@H](C)c3ccccc3O)ncn2)cn1 [Compound 109]
33 | < 30 | Cc1ccc(-c2cc(NC[C@@H](C)c3cccc4c3OCC4)ncn2)cn1 [Compound 134]
34 | < 30 | Cc1ccc(-c2cc(NCC(C)c3ccnc4c3OCC4)ncn2)cn1 (stereo not drawn) [Compound 289]
35 | < 30 | CNC(=O)c1ccnc2c([C@H](C)CNc3cc(-c4cnc(C)nc4)ncn3)cccc12 [Compound 578, (S)—N-methyl-8-(1-((2′-methyl-[4,5′-bipyrimidin]-6-yl)amino)propan-2-yl)quinoline-4-carboxamide]
36 | < 30 | Cc1ncc(-c2cc(NC[C@@H](C)c3cccc4c(C(F)F)ccnc34)ncn2)cn1 [Compound 669]
37 | < 30 | Cc1ccc(-c2cc(NCC(C)c3ccccc3OCCCO)ncn2)cn1 (stereo not drawn) [Compound 182]
38 | < 30 | COc1ccc(C(C)CNc2cc(-c3ccc(C)nc3)ncn2)c(OC)n1 (stereo not drawn) [Compound 466]
39 | < 30 | COc1cc(C(=O)NO)ccc1C(C)CNc1cc(-c2ccc(C)nc2)ncn1 (stereo not drawn) [Compound 156]
40 | < 30 | CNC(=O)c1ccc([C@H](C)CNc2cc(-c3ccc(N4CCOCC4)nc3)ncn2)c(OC)c1 [Compound 367]
41 | < 30 | Cc1ccc(-c2cc(NCC(C)c3ccc(F)c4ccoc34)ncn2)cn1 (stereo not drawn) [Compound 477]
42 | < 30 | C[C@H](CNc1cc(-c2ccc(N)nc2)ncn1)c1ccnc2c1OCC2 [Compound 594]
43 | < 30 | CNC(=O)c1ccnc2c([C@H](C)CNc3cc(-c4cnc(C)c(C)c4)ncn3)cccc12 [Compound 870]
44 | < 30 | CNC(=O)c1ccnc2c([C@H](C)CNc3cc(-c4cncc(N)c4)ncn3)cccc12 [Compound 874]
45 | < 30 | CC(CNc1cc(-c2cnc3c(cnn3CCO)c2)ncn1)c1ccnc2ccoc12 (stereo not drawn) [Compound 429]
46 | < 30 | CNC(=O)c1ccnc2c([C@H](C)CNc3cc(-c4ccnc(C5CC5)c4)ncn3)cccc12 [Compound 911]
47 | < 30 | CNC(=O)c1ccnc2c([C@H](C)CNc3cc(-c4cnc(C)c(F)c4)ncn3)cccc12 [Compound 972]
48 | < 30 | Cc1ccc(-c2cc(NCC(C)c3cccc4nccnc34)ncn2)cn1 (stereo not drawn) [Compound 332]
